Laboratory results published in patent US20180237713A1, “Ionic Liquid, Lubricant, and Magnetic Recording Medium” (priority 2015, published 2018).

Tests used:
[1] = Thermal stability measurement (TG/DTA weight reduction temperature); settings: for Thermal stability improved compared with perfluoropolyether Z-DOL or Z-TETRAOL by: difference to Z-DOL or Z-TETRAOL; for Weight reduction temperature 5% / Weight reduction temperature 10% / Weight reduction temperature 20%: TG/DTA, air 200 mL/min, 10° C./min, 30° C. to 600° C.
[2] = Solubility test of ionic liquid in fluorine-based solvent VERTREL XF; settings: for Solubility to fluorine-based solvent: VERTREL XF [CF3(CHF)2CF2CF3], 25° C., ultrasonic 5 minutes, left 1 day, visual; for Dissolved or not in fluorine-based solvent: VERTREL XF
Description: A solubility test was performed on the ionic liquid synthesized each of Examples and each of Comparative Examples using VERTREL XF [CF3(CHF)2CF2CF3] available from Du Pont-Mitsui Fluorochemicals Company, Ltd. as a fluorine-based solvent.
The ionic liquid was added to the predetermined mass of VERTREL XF.
Specifically, 0.5 parts by mass or 0.1 parts by mass of each ionic liquid was added to 100 parts by mass of VERTREL XF (25° C.).
Note that, a case where the mixture was visually observed to be transparent, the ionic liquid was judged as being dissolved. A case where the mixture was not transparent or insoluble matter was observed, the ionic liquid was judged as not being dissolved (insoluble).
The ionic liquid was dissolved when 0.5 parts by mass of the ionic liquid was added.
The ionic liquid was not dissolved when 0.5 parts by mass of the ionic liquid was added, but the ionic liquid was dissolved when 0.1 parts by mass of the ionic liquid was added.
The ionic liquid was not dissolved both when 0.5 parts by mass of the ionic liquid was added and when 0.1 parts by mass of the ionic liquid was added.

Row | Molecule | Solubility to fluorine-based solvent [2] | Weight reduction temperature 5% [1] [°C] | Weight reduction temperature 10% [1] [°C] | Weight reduction temperature 20% [1] [°C] | also measured
1 | CCCCCCCCCCCCCCCCCC[N+]1(CCCC)CCCC1.O=S(=O)([N-]S(=O)(=O)C(F)(F)C(F)(F)C(F)(F)C(F)(F)F)C(F)(F)C(F)(F)C(F)(F)C(F)(F)F |  |  |  |  | Thermal stability improved compared with perfluoropolyether Z-DOL or Z-TETRAOL by [1]: ≥ 90 °C
2 | CCCCCCCCCCCCCCCCCCN1CCCC1.O=S(=O)(NS(=O)(=O)C(F)(F)C(F)(F)C(F)(F)C(F)(F)F)C(F)(F)C(F)(F)C(F)(F)C(F)(F)F |  |  |  |  | Thermal stability improved compared with perfluoropolyether Z-DOL or Z-TETRAOL by [1]: ≥ 70 °C
3 | CCCCCCCCCCCCCCCCCCC1CCCCN2CCCN=C12.O=S1(=O)NS(=O)(=O)C(F)(F)C(F)(F)C1(F)F (stereo not shown) [Comp. Ex. 1A, hexafluorocyclopropane-1,3-bis(sulfonyl)imide-6-octadecyl-1,8-diazabicyclo[5.4.0]-7-undecenium, reference compound] | less than 0.1% by mass | 346.3 | 384.1 | 414.0 | 
4 | CCCCCCCCCCCCCCCCCCN1CCCN2CCCN=C12.O=S1(=O)NS(=O)(=O)C(F)(F)C(F)(F)C1(F)F [Comp. Ex. 4A, hexafluorocyclopropane-1,3-bis(sulfonyl)imide-7-octadecyl-1,5,7-triazabicyclo[4.4.0]-5-decenium, reference compound] | less than 0.1% by mass | 288.4 | 376.2 | 412.1 | Dissolved or not in fluorine-based solvent [2]: not dissolved
5 | CCCCCCCCCCCCCCCCCCN1CCCC1.O=S1(=O)NS(=O)(=O)C(F)(F)C(F)(F)C1(F)F [Comp. Ex. 6A, hexafluorocyclopropane-1,3-bis(sulfonyl)imide-N-octadecylpyrrolidinium, reference compound] | less than 0.1% by mass | 336.4 | 358.4 | 379.4 | 
6 | CCCCCCCCCCCCCCCCCC[n+]1ccn(CCCC)c1.O=S(=O)([N-]S(=O)(=O)C(F)(F)C(F)(F)C(F)(F)C(F)(F)F)C(F)(F)C(F)(F)C(F)(F)C(F)(F)F [Comp. Ex. 8A, bis(nonafluorobutanesulfonyl)imide-1-butyl-3-n-octadecylimidazolium, reference compound] | less than 0.1% by mass | 347.2 | 367.0 | 387.8 | 
7 | CCCCCCCCCCCCCCCCCCn1cc[n+](CCCCC[n+]2ccn(CCCCCCCCCCCCCCCCCC)c2)c1.O=S(=O)([N-]S(=O)(=O)C(F)(F)C(F)(F)C(F)(F)C(F)(F)F)C(F)(F)C(F)(F)C(F)(F)C(F)(F)F.O=S(=O)([N-]S(=O)(=O)C(F)(F)C(F)(F)C(F)(F)C(F)(F)F)C(F)(F)C(F)(F)C(F)(F)C(F)(F)F [Comp. Ex. 9A, 1,5-bis[bis(nonafluorobutanesulfonyl)imide-1-octadecylimidazolium]pentane, reference compound] | less than 0.1% by mass |  |  |  | 
8 | CCCCCCCCCCCCCCCCCCn1cc[n+](CCCCCCCCC[n+]2ccn(CCCCCCCCCCCCCCCCCC)c2)c1.O=S(=O)([N-]S(=O)(=O)C(F)(F)C(F)(F)C(F)(F)C(F)(F)F)C(F)(F)C(F)(F)C(F)(F)C(F)(F)F.O=S(=O)([N-]S(=O)(=O)C(F)(F)C(F)(F)C(F)(F)C(F)(F)F)C(F)(F)C(F)(F)C(F)(F)C(F)(F)F [Comp. Ex. 10A, 1,9-bis[bis(nonafluorobutanesulfonyl)imide-1-octadecylimidazolium]nonane, reference compound] | less than 0.1% by mass | 355.1 | 381.0 | 400.9 | 
9 | CCCCCCCCCCCCCCCCCC[N+]1=C2CCCCCN2CCC1.O=S(=O)([O-])C(F)(F)F [Ex. 7A, trifluoromethanesulfonic acid-8-octadecyl-1,8-diazabicyclo[5.4.0]-7-undecenium] | 0.5% by mass or greater |  |  |  | Solubility to fluorine-based solvent ([2]; listed as Example 7A): ≥ 0.5 % by mass
10 | CCCCCCCCCCCCCCCCCC[n+]1ccn(CCC(F)(F)C(F)(F)C(F)(F)C(F)(F)C(F)(F)C(F)(F)C(F)(F)C(F)(F)F)c1.O=S(=O)([N-]S(=O)(=O)C(F)(F)C(F)(F)C(F)(F)C(F)(F)F)C(F)(F)C(F)(F)C(F)(F)C(F)(F)F [Ex. 8A, bis(nonafluorobutanesulfonyl)imide-1-1′H,1′H,2′H,2′H-heptadecafluorodecyl-3-octadecylimidazolium] |  | 335.8 | 358.5 | 377.7 | 
11 | CCCCCCCCCCCCCCCCCCn1cc[n+](CCC[n+]2ccn(CCCCCCCCCCCCCCCCCC)c2)c1.O=S(=O)([N-]S(=O)(=O)C(F)(F)C(F)(F)C(F)(F)C(F)(F)F)C(F)(F)C(F)(F)C(F)(F)C(F)(F)F.O=S(=O)([N-]S(=O)(=O)C(F)(F)C(F)(F)C(F)(F)C(F)(F)F)C(F)(F)C(F)(F)C(F)(F)C(F)(F)F [Ex. 11A] | 0.5% by mass or greater |  |  |  | 
12 | heptadecafluorooctanesulfonic acid-6-octadecyl-1,8-diazabicyclo[5.4.0]-7-undecenium |  | 361.9 | 382.7 | 403.5 | Thermal stability compared to perfluoropolyether Z-DOL or Z-TETRAOL [1]: high
13 | heptadecafluorooctanesulfonic acid-6-octadecyl-1,8-diazabicyclo[5.4.0]-7-undecenium [Comp. Ex. 2A, reference compound] | less than 0.1% by mass |  |  |  | 
14 | heptadecafluorooctanesulfonic acid-7-octadecyl-1,5,7-triazabicyclo[4.4.0]-5-decenium |  | 356.1 | 380.4 | 401.5 | Thermal stability compared to perfluoropolyether Z-DOL or Z-TETRAOL [1]: high
15 | heptadecafluorooctanesulfonic acid-7-octadecyl-1,5,7-triazabicyclo[4.4.0]-5-decenium [Comp. Ex. 5A, reference compound] | less than 0.1% by mass |  |  |  | Dissolved or not in fluorine-based solvent [2]: not dissolved
16 | nonafluorobutanesulfonic acid-N-octadecylpyrrolidinium |  | 339.4 | 359.0 | 377.3 | Thermal stability improved compared with perfluoropolyether Z-DOL or Z-TETRAOL by [1]: ≥ 95 °C
17 | nonafluorobutanesulfonic acid-N-octadecylpyrrolidinium [Ex. 6A] |  |  |  |  | Dissolved or not in fluorine-based solvent [2]: could be dissolved
18 | tris(trifluoromethanesulfonyl)methide-6-octadecyl-1,8-diazabicyclo[5.4.0]-7-undecenium |  | 354.9 | 385.0 | 404.3 | Thermal stability compared to perfluoropolyether Z-DOL or Z-TETRAOL [1]: high
19 | tris(trifluoromethanesulfonyl)methide-6-octadecyl-1,8-diazabicyclo[5.4.0]-7-undecenium [Comp. Ex. 3A, reference compound] | less than 0.1% by mass |  |  |  | Dissolved or not in fluorine-based solvent [2]: not dissolved
